In patent publication US20250382302A1, “Anticancer polyheterocyclic compounds and associated methods” (University of Denver, priority 2024, published 2025):

What was measured:
MDA-MB-468 = test: NCI five-dose testing, MDA-MB-468; settings: for TGI: Breast Cancer; for TGI / GI50: MDA-MB-468; for GI50 / CC50: Homo sapiens; for CC50: MDA-MB-468, read-out: LC50
SR = test: NCI five-dose testing, SR
OVCAR-4 = test: NCI five-dose testing, OVCAR-4; settings: for GI50 / CC50: Homo sapiens; for GI50 / TGI: OVCAR-4; for CC50: OVCAR-4, read-out: LC50; for TGI: Ovarian Cancer
SK-MEL-5 = test: NCI five-dose testing, SK-MEL-5; type: cell-based; settings: Melanoma; for GI50 / CC50: Homo sapiens; for CC50: read-out: LC50 (the source's name)
SK-MEL-2 = test: NCI five-dose testing, SK-MEL-2; type: cell-based; settings: Melanoma
HL-60(TB) = test: NCI five-dose testing, HL-60(TB); settings: for GI50 / CC50: Homo sapiens; for GI50: HL-60; for CC50: HL-60, read-out: LC50; for TGI: Leukemia, HL-60(TB)
CCRF-CEM = test: NCI five-dose testing, CCRF-CEM; settings: for GI50 / CC50: Homo sapiens; for CC50: read-out: LC50; for TGI: Leukemia
NCI-H522 = test: NCI five-dose testing, NCI-H522; settings: for GI50 / CC50: Homo sapiens; for GI50 / TGI: NCI-H522; for CC50: NCI-H522, read-out: LC50; for TGI: Non-Small Cell Lung Cancer
K-562 = test: NCI five-dose testing, K-562
T-47D = test: NCI five-dose testing, T-47D; settings: for TGI: Breast Cancer, T-47D; for GI50 / CC50: Homo sapiens, T47D; for CC50: read-out: LC50
KM12 [1] = settings: Colon Cancer
KM12 [2] = test: cells; settings: Homo sapiens; for GI50: KM12; for CC50: KM12, read-out: LC50
MOLT-4 = test: NCI five-dose testing, MOLT-4; settings: for GI50 / CC50: Homo sapiens; for GI50 / TGI: MOLT-4; for CC50: MOLT-4, read-out: LC50; for TGI: Leukemia
OVCAR-3 = test: NCI five-dose testing, OVCAR-3; settings: for GI50 / CC50: Homo sapiens; for GI50 / TGI: OVCAR-3; for CC50: OVCAR-3, read-out: LC50; for TGI: Ovarian Cancer
RPMI-8226 = test: NCI five-dose testing, RPMI-8226; settings: for GI50 / CC50: Homo sapiens; for GI50 / TGI: RPMI-8226; for CC50: RPMI-8226, read-out: LC50; for TGI: Leukemia
IGROV1 = test: NCI five-dose testing, IGROV1; type: cell-based
OVCAR-8 [3] = test: cells; settings: Homo sapiens
SNB-75 [4] = settings: CNS Cancer
NCI-H23 [5] = test: cells; settings: Homo sapiens
OVCAR-8 [6] = settings: Ovarian Cancer
UACC-62 [7] = settings: Melanoma
NCI-H23 [8] = settings: Non-Small Cell Lung Cancer
SNB-75 [9] = test: cells; settings: Homo sapiens
MCF7 = test: NCI five-dose testing, MCF7
UO-31 [10] = test: cells; settings: Homo sapiens
ACHN [11] = test: cells; settings: Homo sapiens
UACC-62 [12] = test: cells; settings: Homo sapiens
ACHN [13] = settings: Renal Cancer
UO-31 [14] = settings: Renal Cancer

C=CCCOC1=C[C@H]2C3=C(C(=O)c4ccccc4C3=O)N3C(=O)C(=O)N(Cc4ccc(C)cc4)[C@]23C=C1
TGI (MDA-MB-468): 6.86 × 10^−7 | GI50 (MDA-MB-468): 0.0209 µM | CC50 (MDA-MB-468): ≥ 100 µM | GI50 (SR; Homo sapiens): 0.862 µM | CC50 (SR; Homo sapiens, read-out: LC50): ≥ 100 µM | TGI (SR; Leukemia): 1.00 × 10^−4 | GI50 (OVCAR-4): 0.875 µM | CC50 (OVCAR-4): ≥ 100 µM | TGI (OVCAR-4): 7.04 × 10^−6

C[C@]12C3=C(C(=O)c4ccccc4C3=O)N3C(=O)C(=O)N4C[C@H]5C[C@@]16CC6[C@@]5(C)[C@@]432 (stereo partly drawn)
GI50 (SK-MEL-5): 1.3 µM | CC50 (SK-MEL-5): 7.32 µM | TGI (SK-MEL-5): 3.08 × 10^−6 | TGI (MDA-MB-468): 1.55 × 10^−6 | GI50 (MDA-MB-468): 0.384 µM | CC50 (MDA-MB-468): 4.03 µM | GI50 (SK-MEL-2; Homo sapiens): 1.27 µM | CC50 (SK-MEL-2; Homo sapiens, read-out: LC50 (the source's name)): 5.2 µM | TGI (SK-MEL-2): 2.57 × 10^−6 | GI50 (HL-60(TB)): 0.267 µM | CC50 (HL-60(TB)): 3.28 µM | TGI (HL-60(TB)): 1.06 × 10^−6 | GI50 (CCRF-CEM): 1.23 µM | CC50 (CCRF-CEM): 5 µM | TGI (CCRF-CEM): 2.48 × 10^−6 | GI50 (OVCAR-4): 1.36 µM | CC50 (OVCAR-4): 5.17 µM | TGI (OVCAR-4): 2.65 × 10^−6

COc1cccc(OC)c1N(Cc1ccoc1)C(=O)C(=O)NC1=CC(=O)c2ccccc2C1=O
TGI (MDA-MB-468): 8.99 × 10^−7 | GI50 (MDA-MB-468): 0.251 µM | CC50 (MDA-MB-468): 3.02 µM | GI50 (NCI-H522): 1.33 µM | CC50 (NCI-H522): 5.14 µM | TGI (NCI-H522): 2.61 × 10^−6 | GI50 (K-562; Homo sapiens, K562): 1.46 µM | CC50 (K-562; Homo sapiens, K562, read-out: LC50): 5.37 µM | TGI (K-562; Leukemia, K-562): 2.80 × 10^−6 | TGI (T-47D): 2.81 × 10^−6 | GI50 (T-47D): 1.48 µM | CC50 (T-47D): 5.34 µM | GI50 (HL-60(TB)): 0.282 µM | CC50 (HL-60(TB)): 1.48 µM | TGI (HL-60(TB)): 5.69 × 10^−7 | TGI (KM12 [1]): 3.51 × 10^−6 | GI50 (KM12 [2]): 1.25 µM | CC50 (KM12 [2]): 9.84 µM | GI50 (CCRF-CEM): 0.437 µM | CC50 (CCRF-CEM): 3.89 µM | TGI (CCRF-CEM): 1.48 × 10^−6 | GI50 (MOLT-4): 0.462 µM | CC50 (MOLT-4): 3.98 µM | TGI (MOLT-4): 1.57 × 10^−6 | GI50 (OVCAR-3): 1.18 µM | CC50 (OVCAR-3): 4.96 µM | TGI (OVCAR-3): 2.42 × 10^−6 | GI50 (RPMI-8226): 1.3 µM | CC50 (RPMI-8226): 5.12 µM | TGI (RPMI-8226): 2.57 × 10^−6

COC1=C[C@H]2C3=C(C(=O)c4ccccc4C3=O)N3C(=O)C(=O)N(Cc4ccco4)[C@]23C=C1
GI50 (SK-MEL-5): 1.13 µM | CC50 (SK-MEL-5): 9.08 µM | TGI (SK-MEL-5): 3.21 × 10^−6 | TGI (MDA-MB-468): 1.35 × 10^−6 | GI50 (MDA-MB-468): 0.177 µM | CC50 (MDA-MB-468): 7.96 µM | GI50 (IGROV1; Homo sapiens, IGROV-1, Ovarian Cancer): 1.38 µM | CC50 (IGROV1; Homo sapiens, IGROV-1, Ovarian Cancer, read-out: LC50 (the source's name)): ≥ 100 µM | TGI (IGROV1; Ovarian Cancer): 6.38 × 10^−6

C=CCN(C(=O)C(=O)NC1=CC(=O)c2ccccc2C1=O)c1c(OC)cccc1OC
GI50 (OVCAR-8 [3]; OVCAR-8): 1.36 µM | CC50 (OVCAR-8 [3]; OVCAR-8, read-out: LC50): 5.36 µM | TGI (SNB-75 [4]): 2.93 × 10^−6 | GI50 (NCI-H23 [5]; NCI-H23): 1.44 µM | CC50 (NCI-H23 [5]; NCI-H23, read-out: LC50): 5.39 µM | TGI (OVCAR-8 [6]): 2.70 × 10^−6 | TGI (UACC-62 [7]): 2.81 × 10^−6 | TGI (MDA-MB-468): 8.97 × 10^−7 | GI50 (MDA-MB-468): 0.275 µM | CC50 (MDA-MB-468): 3 µM | GI50 (NCI-H522): 1.25 µM | CC50 (NCI-H522): 5.03 µM | TGI (NCI-H522): 2.51 × 10^−6 | TGI (T-47D): 2.81 × 10^−6 | GI50 (T-47D): 1.48 µM | CC50 (T-47D): 5.33 µM | TGI (NCI-H23 [8]): 2.79 × 10^−6 | GI50 (HL-60(TB)): 0.249 µM | CC50 (HL-60(TB)): 1.52 µM | TGI (HL-60(TB)): 5.42 × 10^−7 | TGI (KM12 [1]): 2.28 × 10^−6 | GI50 (SNB-75 [9]; SNB-75): 1.43 µM | CC50 (SNB-75 [9]; SNB-75, read-out: LC50): 5.99 µM | GI50 (KM12 [2]): 0.626 µM | CC50 (KM12 [2]): 6.39 µM | TGI (MCF7; Breast Cancer, MCF7): 2.78 × 10^−6 | GI50 (MCF7; Homo sapiens, MCF7): 1.45 µM | CC50 (MCF7; Homo sapiens, MCF7, read-out: LC50): 5.32 µM | GI50 (CCRF-CEM): 0.781 µM | CC50 (CCRF-CEM): 4.55 µM | TGI (CCRF-CEM): 2.04 × 10^−6 | GI50 (OVCAR-4): 1.22 µM | CC50 (OVCAR-4): 4.98 µM | TGI (OVCAR-4): 2.46 × 10^−6 | GI50 (UO-31 [10]; UO-31): 1.44 µM | CC50 (UO-31 [10]; UO-31, read-out: LC50): 5.31 µM | GI50 (MOLT-4): 0.441 µM | CC50 (MOLT-4): 4.04 µM | TGI (MOLT-4): 1.62 × 10^−6 | GI50 (ACHN [11]): 1.35 µM | CC50 (ACHN [11]; read-out: LC50): 5.21 µM | GI50 (UACC-62 [12]; UACC-62): 1.48 µM | CC50 (UACC-62 [12]; UACC-62, read-out: LC50): 5.35 µM | GI50 (OVCAR-3): 1.03 µM | CC50 (OVCAR-3): 4.73 µM | TGI (OVCAR-3): 2.21 × 10^−6 | TGI (ACHN [13]): 2.66 × 10^−6 | TGI (UO-31 [14]): 2.76 × 10^−6 | GI50 (RPMI-8226): 1.04 µM | CC50 (RPMI-8226): 4.74 µM | TGI (RPMI-8226): 2.22 × 10^−6
